# Earlier results, collected in US20220265833A1, “ASPARTIC PROTEASE-TRIGGERED ANTIFUNGAL HYDROGELS” (priority 2017, published 2022).
# Square brackets hold non-standard residues; d marks the D form. Ends that are not written are not given here. Phe(4-NO2) = N[C@@H](Cc1ccc([N+](=O)[O-])cc1)C(=O)O
# Test system: Saps
row,Substance,rank of peptide-Sap catalytic efficiency
1,LAF(p-NO2)FGAPK (LA[Phe(4-NO2)]FGAPK) [LFFK.AG],"In order of decreasing catalytic efficiencies, these peptides were: LFFK.AG, LFFK.A2, and LFFK"
2,LAF(p-NO2)FLAPK (LA[Phe(4-NO2)]FLAPK) [LFFK.A2],"In order of decreasing catalytic efficiencies, these peptides were: LFFK.AG, LFFK.A2, and LFFK"
3,LRF(p-NO2)↓FLAPK (LR[Phe(4-NO2)]FLAPK) [LFFK],"In order of decreasing catalytic efficiencies, these peptides were: LFFK.AG, LFFK.A2, and LFFK"
